# Laboratory results from patent US9340577B2, “HLA binding motifs and peptides and their uses” (priority 1992, dated 2016).
# No end group written: not given here.
# Tests used:
# Assay in all cases: biochemical
# Assay type in all cases: binding
# HLA-A3.2 (A*0301) = HLA-A3.2 (A*0301) (Homo sapiens, UniProt P04439)
# HLA-A11 (A*1101) = HLA-A11 (A*1101) (Homo sapiens, UniProt P04439, A114D/D185E/E176A/F33Y/L180Q/S129P/T187R)
# A31 (A*3101) = A31 (A*3101) (Homo sapiens, UniProt P04439, A270S/D185E/E176V/E277Q/F33T/G231S/G80R/H175R/I121M/I218V/I322F/K168Q/L300P/L318F/M331R/P217A/Q94H/R138Q/T323A/T345S/T97I/V358M)
# A*3301 = A*3301 (Homo sapiens, UniProt P04439, A270S/D185E/E176V/E277Q/E87N/F33T/G231S/H175R/I121M/I218V/I322F/K168Q/K210R/L300P/L318F/M331R/P217A/Q86R/Q94H/R138Q/T323A/T345S/T97I/V358M/Y195H)
# A*6801 = A*6801 (Homo sapiens, UniProt P04439, A269V/D185E/E176V/E277Q/E87N/F33Y/G231S/I121M/I166T/I218V/L180W/L300P/L318F/N151K/P208A/P217A/Q86R/R169H/T345S)
compound,measurement,setting,value
AILGHIVRPR [Peptide 9017.0226],IC50,HLA-A3.2 (A*0301),49 nM
same,IC50,HLA-A11 (A*1101),160 nM
same,IC50,A31 (A*3101),7.1 nM
same,IC50,A*3301,240 nM
same,IC50,A*6801,234 nM
NSNASAFLK [Peptide 1587.07],IC50,HLA-A3.2 (A*0301),426 nM
same,IC50,HLA-A11 (A*1101),13 nM
same,IC50,A31 (A*3101),3400 nM
same,IC50,A*3301,269 nM
same,IC50,A*6801,27 nM
AFDLSHFLK [Peptide 9017.0063],IC50,HLA-A3.2 (A*0301),777 nM
same,IC50,HLA-A11 (A*1101),46 nM
same,IC50,A31 (A*3101),639 nM
same,IC50,A*3301,1440 nM
same,IC50,A*6801,216 nM
VTYNSEVQR [Peptide 1589.29],IC50,HLA-A3.2 (A*0301),71 nM
same,IC50,HLA-A11 (A*1101),25 nM
same,IC50,A31 (A*3101),40 nM
same,IC50,A*3301,152 nM
same,IC50,A*6801,23 nM
ITYSDETQR [Peptide 88.0429],IC50,HLA-A3.2 (A*0301),2960 nM
same,IC50,HLA-A11 (A*1101),165 nM
same,IC50,A31 (A*3101),879 nM
same,IC50,A*3301,1350 nM
same,IC50,A*6801,26 nM
KIKPPLPSVR [Peptide 9017.0234],IC50,HLA-A3.2 (A*0301),1110 nM
same,IC50,HLA-A11 (A*1101),6950 nM
same,IC50,A31 (A*3101),8.1 nM
same,IC50,A*3301,3440 nM
same,IC50,A*6801,14700 nM
TVSAELPR [Peptide 1556.22],IC50,HLA-A3.2 (A*0301),> 20000 nM
same,IC50,HLA-A11 (A*1101),1880 nM
same,IC50,A31 (A*3101),11500 nM
same,IC50,A*3301,10100 nM
same,IC50,A*6801,214 nM
LLRAVRIIK [Peptide 9017.0069],IC50,HLA-A3.2 (A*0301),69 nM
same,IC50,HLA-A11 (A*1101),2030 nM
same,IC50,A31 (A*3101),2640 nM
same,IC50,A*3301,> 20000 nM
same,IC50,A*6801,> 20000 nM
VIDSPAGQA [Peptide 78.0316],IC50,HLA-A3.2 (A*0301),13000 nM
same,IC50,HLA-A11 (A*1101),9430 nM
same,IC50,A31 (A*3101),407 nM
same,IC50,A*3301,913 nM
same,IC50,A*6801,983 nM
RLIERIRER [Peptide 9017.0124],IC50,HLA-A3.2 (A*0301),57 nM
same,IC50,HLA-A11 (A*1101),407 nM
same,IC50,A31 (A*3101),14 nM
same,IC50,A*3301,1100 nM
same,IC50,A*6801,983 nM
VVVKSPNHVK [Peptide 9012.0255],IC50,HLA-A3.2 (A*0301),256 nM
same,IC50,HLA-A11 (A*1101),88 nM
same,IC50,A31 (A*3101),7700 nM
same,IC50,A*3301,> 20000 nM
same,IC50,A*6801,320 nM
FTAFLVAFK [Peptide 88.0389],IC50,HLA-A3.2 (A*0301),45 nM
same,IC50,HLA-A11 (A*1101),15 nM
same,IC50,A31 (A*3101),663 nM
same,IC50,A*3301,76 nM
same,IC50,A*6801,23 nM
TIAYIEYRK [Peptide 9017.0119],IC50,HLA-A3.2 (A*0301),911 nM
same,IC50,HLA-A11 (A*1101),24 nM
same,IC50,A31 (A*3101),3300 nM
same,IC50,A*3301,892 nM
same,IC50,A*6801,7.8 nM
KLFLQGTPK [Peptide 88.0381],IC50,HLA-A3.2 (A*0301),15 nM
same,IC50,HLA-A11 (A*1101),12 nM
same,IC50,A31 (A*3101),51 nM
same,IC50,A*3301,> 20000 nM
same,IC50,A*6801,703 nM
ITVSAELPR [Peptide 1556.18],IC50,HLA-A3.2 (A*0301),> 20000 nM
same,IC50,HLA-A11 (A*1101),739 nM
same,IC50,A31 (A*3101),6930 nM
same,IC50,A*3301,8710 nM
same,IC50,A*6801,25 nM
WLIKRIRER [Peptide 9017.0122],IC50,HLA-A3.2 (A*0301),5160 nM
same,IC50,HLA-A11 (A*1101),> 20000 nM
same,IC50,A31 (A*3101),85 nM
same,IC50,A*3301,20 nM
same,IC50,A*6801,50 nM
HLYGYSWYK [Peptide 76.0153],IC50,HLA-A3.2 (A*0301),12 nM
same,IC50,HLA-A11 (A*1101),11 nM
same,IC50,A31 (A*3101),48 nM
same,IC50,A*3301,61 nM
same,IC50,A*6801,16 nM
VSIEWRLRR [Peptide 9017.0088],IC50,HLA-A3.2 (A*0301),338 nM
same,IC50,HLA-A11 (A*1101),6.9 nM
same,IC50,A31 (A*3101),3.1 nM
same,IC50,A*3301,29 nM
same,IC50,A*6801,131 nM
KVSEFRWYR [Peptide 78.0281],IC50,HLA-A3.2 (A*0301),43 nM
same,IC50,HLA-A11 (A*1101),15 nM
same,IC50,A31 (A*3101),10 nM
same,IC50,A*3301,32 nM
same,IC50,A*6801,23 nM
ATMCRHYKR [Peptide 1587.08],IC50,HLA-A3.2 (A*0301),90 nM
same,IC50,HLA-A11 (A*1101),28 nM
same,IC50,A31 (A*3101),10 nM
same,IC50,A*3301,42 nM
same,IC50,A*6801,60 nM
LTNILNVLK [Peptide 1587.02],IC50,HLA-A3.2 (A*0301),221 nM
same,IC50,HLA-A11 (A*1101),4.6 nM
same,IC50,A31 (A*3101),210 nM
same,IC50,A*3301,2030 nM
same,IC50,A*6801,12 nM
SFSELVRPFK [Peptide 1587.03],IC50,HLA-A3.2 (A*0301),4250 nM
same,IC50,HLA-A11 (A*1101),551 nM
same,IC50,A31 (A*3101),2 nM
same,IC50,A*3301,24 nM
same,IC50,A*6801,5340 nM
CSCC[C@H](NC(=O)[C@@H](NC(=O)[C@H](C)N)[C@@H](C)O)C(=O)N[C@@H](CS)C(=O)N[C@@H](CCCCN)C(=O)N[C@@H](Cc1c[nH]cn1)C(=O)N[C@@H](Cc1ccc(O)cc1)C(=O)N[C@@H](CCCNC(=N)N)C(=O)N[C@@H](CCCNC(=N)N)C(=O)O [Peptide 88.0343],IC50,HLA-A3.2 (A*0301),221 nM
same,IC50,HLA-A11 (A*1101),19 nM
same,IC50,A31 (A*3101),23 nM
same,IC50,A*3301,74 nM
same,IC50,A*6801,55 nM
